We go through one compound from ChEMBL document CHEMBL4819020, “Discovery of [1,2,4]triazolo[1,5-a]pyrimidines derivatives as potential anticancer agents” (Eur J Med Chem, 2021).

The subject of data set [1] is MGC-803. Description: Cell cycle arrest in human MGC-803 cells assessed as accumulation of cells in S phase at 0.75 uM measured after 24 hrs by PI staining based flow cytometry assay (reference value: 18.03%). It is filed as functional. (In general: In flow cytometry, cells or beads pass a laser one at a time.)
The subject of data set [2] is MGC-803. Description: Induction of apoptosis in human MGC-803 cells assessed as viable cells at 1.5 uM measured after 48 hrs by Annexin V-FITC/PI staining based flow cytometry method (reference value: 92.3 %). The conditions noted are these: read-out: Activity. It is filed as functional.
Data set [3] concerns MGC-803. Put plainly: Induction of apoptosis in human MGC-803 cells assessed as increase in cleaved caspase 3/9 expression at 0.75 to 3 uM measured after 48 hrs by western blot assay. It is filed as functional, cell-based. The following applies: dose 0.75-3 µM. In general terms: Immunoblotting shows a protein as a band on a membrane.
For data set [4], the system named is MGC-803. Description: Induction of apoptosis in human MGC-803 cells assessed by nuclear fragmentation at 0.75 to 3 uM measured after 48 hrs by Hoechst 33342 staining based microscopic method. It is filed as functional, cell-based. The conditions noted are these: dose 0.75-3 µM.
The subject of data set [5] is MGC-803. Description: Induction of apoptosis in human MGC-803 cells assessed as early apoptotic cells at 3 uM measured after 48 hrs by Annexin V-FITC/PI staining based flow cytometry method (reference value: 0.992 %). It is filed as functional.
Data set [6] deals with MCF7. Description: Antiproliferative activity against human MCF7 cells assessed as inhibition of cell proliferation measured after 72 hrs by MTT assay. It is filed as functional, cell-based. The following applies: MCF7, 72 h.
Data set [7] deals with MGC-803. Description: Induction of apoptosis in human MGC-803 cells assessed as viable cells at 3 uM measured after 48 hrs by Annexin V-FITC/PI staining based flow cytometry method (reference value: 92.3 %). It is filed as functional. The conditions noted are these: read-out: Activity.
Data set [8] deals with MGC-803. Description: Induction of apoptosis in human MGC-803 cells assessed by formation of apoptotic bodies at 0.75 to 3 uM measured after 48 hrs by Hoechst 33342 staining based microscopic method. It is filed as functional, cell-based. The conditions noted are these: dose 0.75-3 µM.
For data set [9], the system named is MGC-803. Put plainly: Inhibition of cell migration in human MGC-803 cells measured after 48 hrs by wound healing assay. It is filed as functional, cell-based. The following applies: dose 0.25-1 µM.
The test system of data set [10] is MGC-803. Description: Induction of apoptosis in human MGC-803 cells assessed as viable cells at 0.75 uM measured after 48 hrs by Annexin V-FITC/PI staining based flow cytometry method (reference value: 92.3 %). It is filed as functional. The following applies: read-out: Activity.
Data set [11] can be described thus: Toxicity in mouse assessed as mouse survival at 2 mg/kg, ig measured after 2 weeks. It is filed as organism-based. The following applies: in vivo, po, 336 h.
The test system of data set [12] is MGC-803. Put plainly: Cell cycle arrest in human MGC-803 cells assessed as accumulation of cells in G0/G1 phase at 1.5 uM measured after 24 hrs by PI staining based flow cytometry assay (reference value: 49.39%). It is filed as functional.

pIC50: −log10 of the molar value.

Usually pIC50 stands for the negative decadic logarithm of the IC50, by convention in mol/L. Regarding `Cc1cc(Nc2ccn(Cc3nc(C)c4ccccc4n3)n2)n2nc(SCc3ccc(Br)cc3)nc2n1`, the Activity in data set [1] was 22.83%; in data set [3], “Dose-Dependent Effect”; in data set [4], “Dose-Dependent Effect”; in [5] it was 19.3%; in data set [8], “Dose-Dependent Effect”; in [9], “Dose-Dependent Effect”. The Activity result is reported as “Non-Toxic” in data set [11] and 57.78% in [12]. Also, the viability at 1.5 µM in data set [2] amounted to 80.3%. Further, in [6], the negative-log IC50 (pIC50) is 5.84. Besides, the viability at 3 µM in data set [7] was determined as 28%. Further, the viability at 0.75 µM in data set [10] worked out at 89.1%.
